Reference: paper PMC12396409, “Screening and hit evaluation of a microbial metabolite library against the pathogenic Plasmodium falciparum and Toxoplasma gondii parasites” (International Journal for Parasitology: Drugs and Drug …, 2025)
Where two headings read alike, the source gives them in different places.

Assays:
[1] = test system: P. falciparum 3D7 parasites; assay: P. falciparum growth inhibition assay, 1-cycle (72 h treatment), SYBR DNA staining (library screen at 2 μg/mL and dose-response); assay type: cell-based, Plasmodium falciparum; conditions: for activity at 2 µg/mL / Screen (P. falciparum): 3D7, 72 h; for IC50: 3D7, 72 h treatment, mean ± S.D., n ≥ 3, read-out: IC50 (μM), P. falciparum; for Screen (P. falciparum): DD from the 120 h timepoint
[2] = test system: T. gondii RH strain (RH-Tub-eYFP) tachyzoites; assay: microbe, parasite or virus in culture; assay type: cell-based, Toxoplasma gondii; conditions: for Mean / Replicate 1 / Replicate 2: 2 μg/mL; for Mean: mean of both replicates, growth (% of control); for Replicate 1 / Replicate 2: values are growth (% of control)
[3] = test system: P. falciparum 3D7 parasites; assay: P. falciparum growth inhibition assay, 2-cycle (120 h treatment), delayed-death screen and dose-response; assay type: cell-based, Plasmodium falciparum; conditions: for activity at 2 µg/mL: Plasmodium falciparum, 3D7, 120 h
[4] = Plasmodium falciparum, P. falciparum, 72 h, screen at 2 μg/mL, replicate 1, read-out: Pf_72h_%Growth_Rep1
[5] = Plasmodium falciparum, P. falciparum, 72 h, screen at 2 μg/mL, replicate 2, read-out: Pf_72h_%Growth_Rep2
[6] = Toxoplasma gondii, 72 h, T. gondii, 72 h, screen at 2 μg/mL, replicate 1, read-out: Tg_72h_%Growth_Rep1
[7] = Toxoplasma gondii, 72 h, T. gondii, 72 h, screen at 2 μg/mL, replicate 2, read-out: Tg_72h_%Growth_Rep2
[8] = P. falciparum, 120 h, screen at 2 μg/mL, replicate 1, read-out: Pf_120h_%Growth_Rep1
[9] = P. falciparum, 120 h, screen at 2 μg/mL, replicate 2, read-out: Pf_120h_%Growth_Rep2
[10] = P. falciparum 3D7, 72 h, parasite screen at 2 μg/mL, % growth, replicate 1
[11] = P. falciparum 3D7, 72 h, parasite screen at 2 μg/mL, % growth, replicate 2
[12] = T. gondii, 72 h, parasite screen at 2 μg/mL, % growth, replicate 1
[13] = T. gondii, 72 h, parasite screen at 2 μg/mL, % growth, replicate 2
[14] = P. falciparum 3D7, 120 h, parasite screen at 2 μg/mL, % growth, replicate 1
[15] = P. falciparum 3D7, 120 h, parasite screen at 2 μg/mL, % growth, replicate 2
[16] = library screen at 2 μg/mL, 72 h, % growth, replicate 1
[17] = library screen at 2 μg/mL, 72 h, % growth, replicate 2
[18] = library screen at 2 μg/mL, 120 h, % growth, replicate 1
[19] = library screen at 2 μg/mL, 120 h, % growth, replicate 2
[20] = P. falciparum, 72 h, parasite screen 2 μg/mL, % growth, replicate 1
[21] = P. falciparum, 72 h, parasite screen 2 μg/mL, % growth, replicate 2
[22] = T. gondii, 72 h, parasite screen 2 μg/mL, % growth, replicate 1
[23] = T. gondii, 72 h, parasite screen 2 μg/mL, % growth, replicate 2
[24] = P. falciparum, 120 h, parasite screen 2 μg/mL, % growth, replicate 1
[25] = P. falciparum, 120 h, parasite screen 2 μg/mL, % growth, replicate 2

SMILES: COc1cc(-c2cc3c(c(=O)o2)C[C@]2(O)[C@@]4(C)C(=O)C=CC(C)(C)[C@]4(O)CC[C@@]2(C)O3)cc2c1OCO2 [Territrem A]
- Mean ([1]; P. falciparum, 72 h, 2 μg/mL, mean of both replicates, growth (% of control)): 49.47
- activity at 2 µg/mL [1, 4]: 14.3%
- activity at 2 µg/mL [1, 5]: 84.6%
- percent parasite growth at 2 µg/mL [2, 6]: 104%
- percent parasite growth at 2 µg/mL [2, 7]: 88.7%
- activity at 2 µg/mL [3, 8]: 6.66%
- activity at 2 µg/mL [3, 9]: 112%

SMILES: Cn1c(=O)/c(=C/c2ccccc2)[nH]c(=O)/c1=C/c1ccccc1 [BIA-P1156]
- Pf_72h_%Growth_Rep1 [1, 10]: 84.26%
- Pf_72h_%Growth_Rep2 [1, 11]: 90.89%
- Tg_72h_%Growth_Rep1 [2, 12]: 116.90%
- Tg_72h_%Growth_Rep2 [2, 13]: 94.03%
- Pf_120h_%Growth_Rep1 [3, 14]: 81.04%
- Pf_120h_%Growth_Rep2 [3, 15]: 137.39%

SMILES: C=C1c2cccc(O)c2C(=O)C2=C(O)[C@]3(O)C(=O)C(C(N)=O)=C(O)[C@@H](N(C)C)[C@@H]3[C@@H](O)[C@H]12 [BIA-M1467]
- Pf_72h_%Growth_Rep1 [1, 10]: 83.43%
- Pf_72h_%Growth_Rep2 [1, 11]: 110.33%
- Tg_72h_%Growth_Rep1 [2, 12]: 118.90%
- Tg_72h_%Growth_Rep2 [2, 13]: 95.35%
- Pf_120h_%Growth_Rep1 [3, 14]: 96.98%
- Pf_120h_%Growth_Rep2 [3, 15]: 103.99%

SMILES: C/C=C/[C@@H]1C=C[C@@H]2C[C@H](C)CC[C@H]2[C@]1(C)/C(O)=C1/C(=O)[C@@H](CO)N(C)C1=O [Epiequisetin]
- Pf_72h_%Growth_Rep1 [1, 16]: 86.43%
- Pf_72h_%Growth_Rep2 [1, 17]: 84.23%
- Tg_72h_%Growth_Rep1 [2, 16]: 129.84%
- Tg_72h_%Growth_Rep2 [2, 17]: 98.00%
- Pf_120h_%Growth_Rep1 [3, 18]: 86.15%
- Pf_120h_%Growth_Rep2 [3, 19]: 82.07%

SMILES: C=C[C@]1(C)C[C@@H](OC(=O)CO)[C@]2(C)[C@H](C)CC[C@]3(CCC(=O)[C@H]32)[C@@H](C)[C@@H]1O [Pleuromutilin]
- IC50 ([1]; Plasmodium falciparum): > 1 µM
- Screen (P. falciparum) ([1]; library screen at 2 μg/mL): I, I
- IC50 ([2]; Toxoplasma gondii, RH strain, 72 h, mean ± S.D., n ≥ 3, read-out: IC50 (μM), T. gondii (converted)): > 1 µM
- Screen (T. gondii) ([2]; library screen at 2 μg/mL, RH strain, 72 h): I, I
- activity in 120 h dose-response assay against P. falciparum ([3]; 120 h): did not display any activity

SMILES: O=C1NC(c2c[nH]c3ccccc23)=C/C1=C1\C(=O)Nc2ccccc21 [Deoxyviolacein]
- Pf_72h_%Growth_Rep1 [1, 16]: 4.36%
- Pf_72h_%Growth_Rep2 [1, 17]: 20.63%
- Mean ([2]; T. gondii, 72 h): 20.63
- Replicate 1 ([2]; T. gondii, 72 h): 14.71
- Replicate 2 ([2]; T. gondii, 72 h): 26.55
- Tg_72h_%Growth_Rep1 [2, 16]: 14.71%
- Tg_72h_%Growth_Rep2 [2, 17]: 26.55%
- Pf_120h_%Growth_Rep1 [3, 18]: 11.68%
- Pf_120h_%Growth_Rep2 [3, 19]: 9.06%

SMILES: CN1C(=O)[C@@]23C[C@]4([C@]56C[C@@]78SS[C@@](CO)(C(=O)N7[C@H]5Nc5ccccc56)N(C)C8=O)c5ccccc5N[C@@H]4N2C(=O)[C@]1(CO)SS3 [Chaetocin]
- activity at 2 µg/mL [1, 4]: 10.9%
- activity at 2 µg/mL [1, 5]: 11.2%
- percent parasite growth at 2 µg/mL [2, 6]: 0.84%
- percent parasite growth at 2 µg/mL [2, 7]: 2.33%
- activity at 2 µg/mL [3, 8]: 16.4%
- activity at 2 µg/mL [3, 9]: 23.8%

SMILES: COc1cccc2c1C(=O)c1c(O)c3c(c(O)c1C2=O)C[C@@](O)(C(=O)CO)C[C@@H]3O[C@H]1C[C@H](N)[C@H](O)[C@H](C)O1 [Doxorubicin]
- activity at 2 µg/mL ([1]; Plasmodium falciparum, library screen at 2 μg/mL, 72 h, % growth, replicate 1, read-out: Pf_72h_%Growth_Rep1): 51.3%
- activity at 2 µg/mL ([1]; Plasmodium falciparum, library screen at 2 μg/mL, 72 h, % growth, replicate 2, read-out: Pf_72h_%Growth_Rep2): 57.9%
- percent parasite growth at 2 µg/mL ([2]; Toxoplasma gondii, 72 h, library screen at 2 μg/mL, 72 h, % growth, replicate 1, read-out: Tg_72h_%Growth_Rep1): 214%
- percent parasite growth at 2 µg/mL ([2]; Toxoplasma gondii, 72 h, library screen at 2 μg/mL, 72 h, % growth, replicate 2, read-out: Tg_72h_%Growth_Rep2): 123%
- activity at 2 µg/mL ([3]; library screen at 2 μg/mL, 120 h, % growth, replicate 1, read-out: Pf_120h_%Growth_Rep1): 15.8%
- activity at 2 µg/mL ([3]; library screen at 2 μg/mL, 120 h, % growth, replicate 2, read-out: Pf_120h_%Growth_Rep2): 35.7%

SMILES: COc1cc(O)c2c(c1)C=CCC(O)C(O)C(=O)C=CCC(C)OC2=O (stereo not drawn) [BIA-L1160]
- Pf_72h_%Growth_Rep1 ([1]; P. falciparum 3D7, 72 h, library screen at 2 μg/mL, % growth, replicate 1): 82.21%
- Pf_72h_%Growth_Rep2 ([1]; P. falciparum 3D7, 72 h, library screen at 2 μg/mL, % growth, replicate 2): 92.24%
- Tg_72h_%Growth_Rep1 ([2]; T. gondii RH, 72 h, library screen at 2 μg/mL, % growth, replicate 1): 102.73%
- Tg_72h_%Growth_Rep2 ([2]; T. gondii RH, 72 h, library screen at 2 μg/mL, % growth, replicate 2): 85.36%
- Pf_120h_%Growth_Rep1 ([3]; P. falciparum 3D7, 120 h, library screen at 2 μg/mL, % growth, replicate 1): 96.72%
- Pf_120h_%Growth_Rep2 ([3]; P. falciparum 3D7, 120 h, library screen at 2 μg/mL, % growth, replicate 2): 110.83%

SMILES: C=C[C@@H](CO)[C@H]1CCN2CCc3c([nH]c4ccccc34)[C@@H]2C1 [Anthirine]
- Pf_72h_%Growth_Rep1 [1, 16]: 73.25%
- Pf_72h_%Growth_Rep2 [1, 17]: 82.22%
- Tg_72h_%Growth_Rep1 [2, 16]: 43.71%
- Tg_72h_%Growth_Rep2 [2, 17]: 53.47%
- Pf_120h_%Growth_Rep1 [3, 18]: 66.95%
- Pf_120h_%Growth_Rep2 [3, 19]: 48.16%

SMILES: CC[C@H]1CCC[C@H](O[C@H]2CC[C@H](N(C)C)[C@@H](C)O2)[C@@H](C)C(=O)C2=C[C@@H]3[C@@H](C=C(C)[C@@H]4C[C@@H](O[C@@H]5O[C@@H](C)[C@H](OC)[C@@H](OC)[C@H]5OC)C[C@@H]34)[C@@H]2CC(=O)O1 [Spinosyn D]
- IC50 [1]: > 1 µM
- Pf_72h_%Growth_Rep1 [1, 20]: 88.37%
- Pf_72h_%Growth_Rep2 [1, 21]: 73.59%
- Screen (P. falciparum) ([1]; library screen at 2 μg/mL): I
- Tg_72h_%Growth_Rep1 [2, 22]: 127.19%
- Tg_72h_%Growth_Rep2 [2, 23]: 79.47%
- Pf_120h_%Growth_Rep1 [3, 24]: 102.44%
- Pf_120h_%Growth_Rep2 [3, 25]: 14.31%

SMILES: CCCCC[C@@H]1CCCCC[C@@H](O)C[C@H](O)[C@H](O)/C=C/C(=O)O1 [Sch 725674]
- Pf_72h_%Growth_Rep1 [1, 20]: 94.68%
- Pf_72h_%Growth_Rep2 [1, 21]: 136.05%
- Tg_72h_%Growth_Rep1 [2, 22]: 110.92%
- Tg_72h_%Growth_Rep2 [2, 23]: 69.04%
- Pf_120h_%Growth_Rep1 [3, 24]: 118.17%
- Pf_120h_%Growth_Rep2 [3, 25]: 96.28%

SMILES: CO[C@H]1C[C@H](O[C@H]2[C@H](C)O[C@@H](O[C@@H]3/C(C)=C/C[C@@H]4C[C@@H](C[C@]5(C=C[C@H](C)[C@@H](C(C)C)O5)O4)OC(=O)[C@@H]4C=C(C)[C@@H](O)[C@H]5OC/C(=C\C=C\[C@@H]3C)[C@]54O)C[C@@H]2OC)O[C@@H](C)[C@H]1NC(C)=O [Eprinomectin B1b]
- Pf_72h_%Growth_Rep1 [1]: 56.32%
- Pf_72h_%Growth_Rep2 [1]: 35.21%
- Tg_72h_%Growth_Rep1 [2]: 157.07%
- Tg_72h_%Growth_Rep2 [2]: 101.19%
- Pf_120h_%Growth_Rep1 [3]: 33.01%
- Pf_120h_%Growth_Rep2 [3]: 22.71%

SMILES: CC[C@H]1CCC[C@H](O)[C@@H](C)C(=O)C2=C[C@@H]3[C@@H](C=C[C@@H]4C[C@@H](O[C@@H]5O[C@@H](C)[C@H](OC)[C@@H](OC)[C@H]5OC)C[C@@H]34)[C@@H]2CC(=O)O1 [Spinosyn A pseudoaglycone]
- IC50 [1]: > 1 µM
- Pf_72h_%Growth_Rep1 [1, 20]: 8.11%
- Pf_72h_%Growth_Rep2 [1, 21]: -6.27%
- Mean ([2]; T. gondii, 72 h): 30.09
- Replicate 1 ([2]; T. gondii, 72 h): 50.49
- Replicate 2 ([2]; T. gondii, 72 h): 9.69
- Tg_72h_%Growth_Rep1 [2, 22]: 50.49%
- Tg_72h_%Growth_Rep2 [2, 23]: 9.69%
- Pf_120h_%Growth_Rep1 [3, 24]: 17.26%
- Pf_120h_%Growth_Rep2 [3, 25]: 10.80%
